≈ marks a conversion by molar mass, not a printed value.
How the values were obtained:
[1] = molecular target: Bromodomain-containing protein 2 (Homo sapiens, UniProt P25440)
Description: Binding affinity to His6-tagged BRD2 (unknown origin) after 60 mins by fluorescence anisotropy binding Assay

PBMC = assay: cells; details: Homo sapiens, read-out: pIC50 (converted)
Description: Antiinflammatory activity against human PBMC cells assessed as LPS-induced IL-6 production by chemiluminescence assay

physchem = details: FaSSIF, pH 6.5
Description: Solubility of the compound in FaSSIF at pH 6.5 after 16 hrs by HPLC analysis

[2] = molecular target: Bromodomain-containing protein 3 (Homo sapiens, UniProt Q15059)
Description: Binding affinity to His6-tagged BRD3 (unknown origin) after 60 mins by fluorescence anisotropy binding Assay

HepG2 = assay: Upregulation of human apoA1 level in human HepG2 cells after 16 to 20 hrs by luciferase reporter gene assay; assay type: functional
[3] = Half life in buffer at pH 2 by HPLC analysis; assay type: physicochemical
Rattus norvegicus = assay: Antiinflammatory activity against po dosed Sprague-Dawley rat immunoinflammatory model assessed as inhibition of KLH-induced ear swelling administered qd for 7 days measured 24 hrs post KLH challenge relative to control; assay type: functional, organism-based
Salmonella typhimurium [4] = assay: Genotoxicity in Salmonella typhimurium TA100 by Ames test; assay type: toxicity, organism-based; details: salmonella enterica subsp. enterica serovar typhimurium
Salmonella typhimurium [5] = assay: Genotoxicity in Salmonella typhimurium TA98 by Ames test; assay type: toxicity, organism-based; details: salmonella enterica subsp. enterica serovar typhimurium
Salmonella typhimurium [6] = assay: Genotoxicity in Salmonella typhimurium TA1537 by Ames test; assay type: toxicity, organism-based; details: salmonella enterica subsp. enterica serovar typhimurium
Salmonella typhimurium [7] = assay: Genotoxicity in Salmonella typhimurium TA1535 by Ames test; assay type: toxicity, organism-based; details: salmonella enterica subsp. enterica serovar typhimurium
Salmonella typhimurium [8] = assay: Genotoxicity in Salmonella typhimurium TA100 by Ames test in presence of rat S9 mix; assay type: toxicity, organism-based; details: salmonella enterica subsp. enterica serovar typhimurium
Salmonella typhimurium [9] = assay: Genotoxicity in Salmonella typhimurium TA98 by Ames test in presence of rat S9 mix; assay type: toxicity, organism-based; details: salmonella enterica subsp. enterica serovar typhimurium
Salmonella typhimurium [10] = assay: Genotoxicity in Salmonella typhimurium TA1535 by Ames test in presence of rat S9 mix; assay type: toxicity, organism-based; details: salmonella enterica subsp. enterica serovar typhimurium
Salmonella typhimurium [11] = assay: Genotoxicity in Salmonella typhimurium TA1537 by Ames test in presence of rat S9 mix; assay type: toxicity, organism-based; details: salmonella enterica subsp. enterica serovar typhimurium
[12] = Oral bioavailability in beagle dog at 3 mg/kg after 1 hr; assay type: ADME, organism-based, Canis lupus familiaris; details: in vivo
[13] = Oral bioavailability in cynomolgus monkey at 5 mg/kg after 1 hr; assay type: ADME, organism-based, Macaca fascicularis; details: in vivo
[14] = Oral bioavailability in CD rat at 3 mg/kg after 1 hr; assay type: ADME, organism-based; details: in vivo
[15] = Oral bioavailability in Balb/c mouse at 3 mg/kg after 1 hr; assay type: ADME, organism-based; details: in vivo
[16] = Terminal half life in cynomolgus monkey at 2 mg/kg, iv after 1 hr; assay type: ADME, organism-based, Macaca fascicularis; set-up: dose 2 mg/kg, route intravenous; details: in vivo, read-out: beta t1/2 (converted)
[17] = Terminal half life in beagle dog at 1 mg/kg, iv after 1 hr; assay type: ADME, organism-based, Canis lupus familiaris; set-up: dose 1 mg/kg, route intravenous; details: in vivo, read-out: beta t1/2 (converted)
[18] = Terminal half life in CD rat at 1 mg/kg, iv after 1 hr; assay type: ADME, organism-based; set-up: dose 1 mg/kg, route intravenous; details: in vivo, read-out: beta t1/2 (converted)
[19] = Terminal half life in Balb/c mouse at 1 mg/kg, iv after 1 hr; assay type: ADME, organism-based; set-up: dose 1 mg/kg, route intravenous; details: in vivo, read-out: beta t1/2 (converted)
[20] = Volume of distribution in cynomolgus monkey at 2 mg/kg, iv and 5 mg/kg, po after 1 hr; assay type: ADME, organism-based, Macaca fascicularis; details: in vivo
[21] = Volume of distribution in beagle dog at 1 mg/kg, iv and 3 mg/kg, po after 1 hr; assay type: ADME, organism-based, Canis lupus familiaris; details: in vivo
[22] = Volume of distribution in CD rat at 1 mg/kg, iv and 3 mg/kg, po after 1 hr; assay type: ADME, organism-based; details: in vivo
[23] = Volume of distribution in Balb/c mouse at 1 mg/kg, iv and 3 mg/kg, po after 1 hr; assay type: ADME, organism-based; details: in vivo
[24] = AUC (0 to infinity) in cynomolgus monkey at 2 mg/kg, iv and 5 mg/kg, po after 1 hr; assay type: ADME, organism-based, Macaca fascicularis; details: plasma
[25] = AUC (0 to infinity) in CD rat at 1 mg/kg, iv and 3 mg/kg, po after 1 hr; assay type: ADME, organism-based; details: plasma
[26] = AUC (0 to infinity) in beagle dog at 1 mg/kg, iv and 3 mg/kg, po after 1 hr; assay type: ADME, organism-based, Canis lupus familiaris; details: plasma
[27] = AUC (0 to infinity) in Balb/c mouse at 1 mg/kg, iv and 3 mg/kg, po after 1 hr; assay type: ADME, organism-based; details: plasma
[28] = Fraction unbound in dog blood at 1000 ng/ml by equilibrium dialysis method; assay type: ADME, tissue-based, Canis lupus familiaris
[29] = Fraction unbound in human blood at 1000 ng/ml by equilibrium dialysis method; assay type: ADME, tissue-based
[30] = Fraction unbound in mouse blood at 1000 ng/ml by equilibrium dialysis method; assay type: ADME, tissue-based
[31] = Fraction unbound in rat blood at 1000 ng/ml by equilibrium dialysis mehod; assay type: ADME, tissue-based
Hepatocyte [32] = details: human, hepatocytes, 2 h
Description: Clearance in human hepatocytes after 120 mins by LC/MS/MS analysis

[33] = cynomolgus monkey, hepatocytes, 2 h
Description: Clearance in cynomolgus monkey hepatocytes after 120 mins by LC/MS/MS analysis

[34] = dog, hepatocytes, 2 h
Description: Clearance in dog hepatocytes after 120 mins by LC/MS/MS analysis

Hepatocyte [35] = details: rat, hepatocytes, 2 h
Description: Clearance in rat hepatocytes after 120 mins by LC/MS/MS analysis

Liver microsomes [36] = details: human, 0.5 h
Description: Clearance in human liver microsomes after 30 mins by LC/MS/MS analysis

Hepatocyte [37] = details: mouse, hepatocytes, 2 h
Description: Clearance in mouse hepatocytes after 120 mins by LC/MS/MS analysis

[38] = cynomolgus monkey, microsomes, 0.5 h
Description: Clearance in cynomolgus monkey liver microsomes after 30 mins by LC/MS/MS analysis

Liver [39] = details: dog, microsomes, 0.5 h
Description: Clearance in dog liver microsomes after 30 mins by LC/MS/MS analysis

Liver microsomes [40] = details: rat, 0.5 h
Description: Clearance in rat liver microsomes after 30 mins by LC/MS/MS analysis

Liver [41] = details: mouse, microsomes, 0.5 h
Description: Clearance in mouse liver microsomes after 30 mins by LC/MS/MS analysis

in vivo [42] = details: cynomolgus monkey, iv, 2 mg/kg
in vivo [43] = details: beagle, dog, iv, 1 mg/kg
in vivo [44] = details: CD, rat, iv, 1 mg/kg
in vivo [45] = details: Balb/c, mouse, iv, 1 mg/kg

Bromodomain-containing protein 2, sequence (P25440 whole entry): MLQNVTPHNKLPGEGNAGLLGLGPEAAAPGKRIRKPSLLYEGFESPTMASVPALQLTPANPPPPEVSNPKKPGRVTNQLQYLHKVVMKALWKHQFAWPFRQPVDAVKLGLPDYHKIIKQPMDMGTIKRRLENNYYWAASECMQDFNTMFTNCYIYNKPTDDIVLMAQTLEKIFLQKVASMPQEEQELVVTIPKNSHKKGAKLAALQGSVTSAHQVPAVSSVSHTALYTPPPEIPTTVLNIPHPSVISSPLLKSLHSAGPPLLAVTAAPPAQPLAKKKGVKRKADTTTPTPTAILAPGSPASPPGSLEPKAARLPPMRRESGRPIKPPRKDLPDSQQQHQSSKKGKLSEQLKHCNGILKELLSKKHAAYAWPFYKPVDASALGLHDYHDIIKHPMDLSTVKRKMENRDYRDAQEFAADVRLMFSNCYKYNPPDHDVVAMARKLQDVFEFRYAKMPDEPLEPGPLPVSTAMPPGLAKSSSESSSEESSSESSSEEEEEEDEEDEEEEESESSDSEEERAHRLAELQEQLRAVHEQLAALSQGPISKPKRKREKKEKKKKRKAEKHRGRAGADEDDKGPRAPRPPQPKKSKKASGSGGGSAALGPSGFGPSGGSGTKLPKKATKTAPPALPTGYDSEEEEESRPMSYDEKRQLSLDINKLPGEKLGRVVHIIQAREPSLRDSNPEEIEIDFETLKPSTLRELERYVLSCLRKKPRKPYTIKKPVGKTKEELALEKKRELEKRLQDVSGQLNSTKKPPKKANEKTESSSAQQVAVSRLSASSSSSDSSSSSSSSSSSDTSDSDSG
Bromodomain-containing protein 3, sequence (Q15059 whole entry): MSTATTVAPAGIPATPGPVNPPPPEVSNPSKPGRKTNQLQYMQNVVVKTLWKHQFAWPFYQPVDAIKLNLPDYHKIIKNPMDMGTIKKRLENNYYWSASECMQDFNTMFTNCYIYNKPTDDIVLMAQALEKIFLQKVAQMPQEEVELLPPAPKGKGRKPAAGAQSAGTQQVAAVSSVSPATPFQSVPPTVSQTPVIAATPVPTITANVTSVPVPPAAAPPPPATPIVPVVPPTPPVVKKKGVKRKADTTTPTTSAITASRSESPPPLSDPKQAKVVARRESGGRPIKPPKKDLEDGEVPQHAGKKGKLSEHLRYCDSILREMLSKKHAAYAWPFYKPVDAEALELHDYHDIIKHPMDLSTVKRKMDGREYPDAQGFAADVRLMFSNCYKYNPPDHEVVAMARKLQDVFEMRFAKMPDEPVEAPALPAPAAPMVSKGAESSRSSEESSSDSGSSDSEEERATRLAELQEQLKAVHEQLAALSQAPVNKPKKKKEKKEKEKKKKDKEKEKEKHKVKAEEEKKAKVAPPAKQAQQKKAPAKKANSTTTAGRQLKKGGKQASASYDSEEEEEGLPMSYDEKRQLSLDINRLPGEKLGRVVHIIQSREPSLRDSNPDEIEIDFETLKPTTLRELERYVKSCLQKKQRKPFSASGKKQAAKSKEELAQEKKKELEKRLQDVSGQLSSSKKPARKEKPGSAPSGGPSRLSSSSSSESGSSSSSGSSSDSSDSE

Cc1nnc2n1-c1ccc([N+](=O)[O-])cc1C(c1ccccc1)=NC2NC(=O)OCc1ccccc1 (centres undefined)
IC50 [1]: 12600 nM | IC50 (PBMC): 2000 nM

COc1ccc2c(c1)C(c1ccc(Cl)cc1)=N[C@@H](CC(=O)NCC1CC1)c1nnc(C)n1-2
solubility at 16 h (physchem): 111 µg/mL (≈ 247 µM)

Cc1nnc2n1-c1ccccc1C(c1ccccc1)=NC2NS(=O)(=O)Cc1ccccc1 (centres undefined)
IC50 [1]: 31600 nM | IC50 (PBMC): 15800 nM

COc1cccc(C2=NC(NC(=O)OCc3ccccc3)c3nnc(C)n3-c3ccccc32)c1 (centres undefined)
IC50 [1]: 3160 nM | IC50 (PBMC): 501 nM

Cc1nnc2n1-c1ccccc1C(c1ccccc1)=NC2NC(=O)NCc1ccccc1 (centres undefined)
IC50 [1]: 2000 nM | IC50 [2]: 794 nM | IC50 (PBMC): 398 nM

CCNC(=O)C[C@@H]1N=C(c2cccc(F)c2)c2cc(OC)ccc2-n2c(C)nnc21
solubility at 16 h (physchem): 116 µg/mL (≈ 285 µM)

Cc1nnc2n1-c1ccc(Cl)cc1C(c1ccccc1)=NC2NC(=O)OCc1ccccc1 (centres undefined)
IC50 [1]: 3160 nM | IC50 [2]: 1580 nM | IC50 (PBMC): 631 nM

COc1ccc2c(c1)C(c1ccc(Cl)cc1)=N[C@@H](CC(=O)O)c1nnc(C)n1-2
IC50 (PBMC): > 100000 nM | solubility at 16 h (physchem): 113 µg/mL (≈ 285 µM)

COc1ccc2c(c1)C(c1ccc(Cl)cc1)=N[C@@H](CC(=O)Nc1cccnc1)c1nnc(C)n1-2
solubility at 16 h (physchem): 95 µg/mL (≈ 201 µM)

Cc1nnc2n1-c1ccccc1C(c1ccccc1)=NC2NC(=O)OCc1ccccc1 (centres undefined)
EC170 (HepG2): 0.22 µM | half-life [3]: 34.8 min | IC50 (PBMC): 158 nM

Cc1ccc(C2=NC(NC(=O)OCc3ccccc3)c3nnc(C)n3-c3ccccc32)cc1 (centres undefined)
IC50 [1]: 1580 nM | IC50 [2]: 1000 nM

Cc1nnc2n1-c1ccccc1C(c1ccccc1)=NC2CC(=O)NCc1ccccc1 (centres undefined)
half-life [3]: > 120 min | IC50 [1]: 2510 nM | IC50 [2]: 2000 nM | IC50 (PBMC): 5010 nM | solubility at 16 h (physchem): 1 µg/mL (≈ 2.37 µM)

CCCCOC(=O)C[C@@H]1N=C(c2ccc(Cl)cc2)c2cc(OC)ccc2-n2c(C)nnc21
solubility at 16 h (physchem): 104 µg/mL (≈ 230 µM)

COc1ccc2c(c1)C(c1ccccc1)=NC(NC(=O)OCc1ccccc1)c1nnc(C)n1-2 (centres undefined)
IC50 [1]: 794 nM | IC50 [2]: 794 nM | IC50 (PBMC): 126 nM

COc1ccc2c(c1)C(c1ccc(Cl)cc1)=N[C@@H](CC(=O)Nc1ccc(F)cc1)c1nnc(C)n1-2
IC50 (PBMC): 2000 nM | solubility at 16 h (physchem): 105 µg/mL (≈ 214 µM)

CCNC(=O)C[C@@H]1N=C(c2ccc(Cl)cc2)c2ccc(OC)cc2-n2c(C)nnc21
IC50 (PBMC): 631 nM

CCOC(=O)NC1N=C(c2ccc(Cl)cc2)c2ccccc2-n2c(C)nnc21 (centres undefined)
half-life [3]: 45 min | IC50 [1]: 2510 nM | IC50 [2]: 1260 nM

Cc1nnc2n1-c1ccccc1C(c1ccccc1)=NC2NC(=O)OCc1ccc(F)cc1 (centres undefined)
half-life [3]: 19.8 min | IC50 [1]: 2000 nM | IC50 [2]: 1000 nM | IC50 (PBMC): 316 nM

COc1ccccc1C1=NC(NC(=O)OCc2ccccc2)c2nnc(C)n2-c2ccccc21 (centres undefined)
IC50 [1]: 10000 nM | IC50 (PBMC): 10000 nM

COc1ccc(C2=NC(NC(=O)OCc3ccccc3)c3nnc(C)n3-c3ccccc32)cc1 (centres undefined)
IC50 [1]: 2000 nM | IC50 [2]: 1000 nM | IC50 (PBMC): 316 nM

COc1ccc2c(c1)C(c1ccc(Cl)cc1)=N[C@@H](CC(=O)Nc1ccccn1)c1nnc(C)n1-2
IC50 (PBMC): 316 nM | solubility at 16 h (physchem): 115 µg/mL (≈ 243 µM)

CCOC(=O)N[C@@H]1N=C(c2ccccc2)c2ccccc2-n2c(C)nnc21
half-life [3]: 13.8 min | IC50 (PBMC): 200 nM

COC(=O)C[C@@H]1N=C(c2ccc(Cl)cc2)c2cc(OC)ccc2-n2c(C)nnc21
IC50 (PBMC): 126 nM | solubility at 16 h (physchem): 115 µg/mL (≈ 280 µM)

Cc1ccc2c(c1)-n1c(C)nnc1C(NC(=O)OCc1ccccc1)N=C2c1ccccc1 (centres undefined)
IC50 [1]: 2510 nM | IC50 [2]: 1260 nM | IC50 (PBMC): 631 nM

Cc1nnc2n1-c1ccccc1C(c1ccccc1)=NC2NC(=O)CCc1ccccc1 (centres undefined)
IC50 [1]: 15800 nM | IC50 [2]: 3160 nM

CCNC(=O)C[C@@H]1N=C(c2ccc(Cl)cc2)c2cc(OC)ccc2-n2c(C)nnc21 [MOLIBRESIB]
Activity (Rattus norvegicus): Dose-dependent effect | Activity (Salmonella typhimurium [4]): Non-toxic | Activity (Salmonella typhimurium [5]): Non-toxic | Activity (Salmonella typhimurium [6]): Non-toxic | Activity (Salmonella typhimurium [7]): Non-toxic | Activity (Salmonella typhimurium [8]): Non-toxic | Activity (Salmonella typhimurium [9]): Non-toxic | Activity (Salmonella typhimurium [10]): Non-toxic | Activity (Salmonella typhimurium [11]): Non-toxic | bioavailability [12]: 44% | bioavailability [13]: 52% | bioavailability [14]: 27% | bioavailability [15]: 61% | half-life [16]: 90 min | half-life [17]: 354 min | half-life [18]: 30 min | half-life [19]: 90 min | Vd [20]: 1.5 L/kg | Vd [21]: 1.8 L/kg | Vd [22]: 1.8 L/kg | Vd [23]: 6.5 L/kg | AUC(0-inf) [24]: 3340 ng·h/mL | AUC(0-inf) [25]: 201 ng·h/mL | AUC(0-inf) [26]: 4740 ng·h/mL | AUC(0-inf) [27]: 468 ng·h/mL | fraction unbound at 1000 ng/ml [28]: 0.24 | fraction unbound at 1000 ng/ml [29]: 0.19 | fraction unbound at 1000 ng/ml [30]: 0.21 | fraction unbound at 1000 ng/ml [31]: 0.18 | CLH (Hepatocyte [32]): < 0.86 mL/min/g | CLH [33]: < 0.085 mL/min/g | CLH [34]: < 1.7 mL/min/g | CLH (Hepatocyte [35]): < 0.86 mL/min/g | CLH (Liver microsomes [36]): < 0.53 mL/min/g | CLH (Hepatocyte [37]): < 0.86 mL/min/g | CLH [38]: 0.2 mL/min/g | CLH (Liver [39]): 0.69 mL/min/g | CLH (Liver microsomes [40]): 1.45 mL/min/g | CLH (Liver [41]): < 0.53 mL/min/g | IC50 (PBMC): 316 nM | clearance at 1 h (in vivo [42]): 14 mL/min/kg | clearance at 1 h (in vivo [43]): 5 mL/min/kg | clearance at 1 h (in vivo [44]): 63 mL/min/kg | clearance at 1 h (in vivo [45]): 75 mL/min/kg

CCOC(=O)NC1N=C(c2ccccc2)c2ccccc2-n2c(C)nnc21 (centres undefined)
half-life [3]: 33.6 min

Cc1nnc2n1-c1ccccc1C(c1ccccc1)=NC2NC(=O)Oc1cccc(F)c1 (centres undefined)
IC50 [1]: 3160 nM | IC50 [2]: 1260 nM

From ChEMBL document CHEMBL2429783, “Discovery of epigenetic regulator I-BET762: lead optimization to afford a clinical candidate inhibitor of the BET bromodomains” (J Med Chem, 2013)
